Measurements reported in ChEMBL document CHEMBL4024707, “Using gene expression database to uncover biology functions of 1,4-disubstituted 1,2,3-triazole analogues synthesized via a copper (I)-catalyzed reaction” (Eur J Med Chem, 2017).
Calls of active or inactive are those of the source. The rule behind the calls is not given here.

How the values were obtained:
[1] = tested on: Hep 3B2; experiment: Growth inhibition of human Hep3B cells at 20 uM up to 72 hrs by MTT assay; format: functional, cell-based
[2] = tested on: Hep 3B2; experiment: Down regulation of FUT1 expression in human Hep3B cells at 1 uM after 6 to 24 hrs by L1000 expression profiling method relative to control; format: functional
[3] = tested on: Hep 3B2; experiment: Growth inhibition of human Hep3B cells at 10 uM after 48 hrs in presence of curcumin by MTT assay; format: functional
[4] = tested on: Hep 3B2; experiment: Induction of autophagy in human Hep3B cells assessed as ratio of LC3-2 to beta-actin level at 10 uM after 48 hrs in presence of curcumin by Western blot analysis; format: functional

O=C1COc2ccccc2N1Cc1cn(CCC2OCCO2)nn1
growth inhibition (GI) [1]: Active
log2FC [2]: -3.2524
CI [3]: 0.89
Ratio [4]: 10.5
